Like-named read-outs stand apart in the source and are kept apart here.
Biological target: T1, SMBS on rat lung membranes (Rattus norvegicus, UniProt A0A8I6A822)
T1 construct: from tissue; host or cells: rat lung membranes (SD male rats)
Assay: Receptor binding of the compound in rat lung membranes ([125I]-iodo-cyanopindolol ligand binding assay; Experiments 1 and 4)
Settings: rat lung membranes, read-out: Binding Activity (30 μM)
Procedure: Evaluation Test on Receptor Binding of the Compound in Rat Lung Membranes:
This experiment was carried out according to the method disclosed in Sugasawa et al., (Sugasawa, T. et al., J. Biol. Chem., 272, 21244-21252(1997)).
Preparation of Rat Lung Membranes
The air tube and blood vessels were removed from the lung excised from SD male rats (7-weeks old when used, purchased from Charles River Japan, Inc.), and the lung was chopped, and washed with ice-cold tris-saline buffer (10 mM Tris-HCl, 154 mM sodium chloride, pH 7.4). The lung was homogenized by PHYSCOTRON (maximum speed: 1 minute) in a buffer for homogenization (tris-saline buffer containing 1 mM ethylenediaminetetraacetate (EDTA), 1 mM 4-(2-aminoethyl)-benzenesulfonyl fluoride (AEBSF), 5 μg/ml aprotinin, 5 μg/ml leupeptin) under ice-cooling. The mixture was centrifuged at a low speed (1500×g, 20 minutes, 4° C.), and the supernatant was super-centrifuged (100000×g, 20 minutes, 4° C.). The pellets thus obtained were suspended in tris-saline buffer, and kept at −80° C. The concentration of protein was measured by a Protein Assay Kit manufactured by Bio-Rad using bovine serum albumin (BSA) as standard.
To each well of a protein-non-adsorbent round-bottom 96-well assay plate (purchased from IWAKI GLASS CO., LTD.) was added tris-saline buffer (200 μl) containing 1 nM [^125I]-iodo-cyanopindolol (purchased from Amarsham), 10 μM serotonin, 20 μM dl-propranol, 10 μM phentoramine, 1.1 mM ascorbic acid and 100 μg lung membranes, and the mixture was mixed well by pipetting, and the plate was incubated at 37° C. for 30 minutes. Test compounds were dissolved in 100% dimethylsulfoxide, and added to the plate in an amount of 2 μl (final concentration of DMSO: 1%). In order to obtain non-specific binding, L-threo-3-(3,4-dihydroxyphenyl)-N-[3-(4-fluorophenyl)propyl]-serinepyrrolidinamide was added at a final concentration of 100 μM instead of test compound. During this period, 0.3% polyethyleneimine (PEI)/tris-saline buffer (100 μl) was added to a multiscreen plate (96-well B-glassfiber, milipore Cat. No. MAFB NOB10) and the plate was incubated for more than 30 minutes. The plate was washed by vacuum filtration (by adding ice-cold tris-saline buffer (200 μl) and then vacuum filtration), and the reaction solution on the 96-well assay plate was washed by vacuum filtration onto the multiscreen plate for four times. The B-glassfiber paper filter at the bottom of the multiscreen plate was punched out, and the γ-ray amount of [^125I]-iodo-cyanopindolol being trapped onto the paper filter was measured as binding amount. The binding amount in the presence of DMSO (final concentration: 1%) was regarded as total binding, and the binding in the presence of L-threo-3-(3,4-dihydroxyphenyl) -N-[3-(4-fluorophenyl)-propyl]serinepyrrolidinamide was regarded as non-specific binding. The value which is calculated by subtracting non-specific binding from total binding is specific binding. The binding activity of the compound can be calculated by the following equation, and expressed in a ratio of inhibiting the specific binding of [^125I]-iodo-cyanopindorol to SMBS on rat lung membranes.
In the same manner to in Experiment 1, the receptor binding assay was carried out on the present compounds by using the rat lung membranes.

[1] = Table 37, compound concentration 30 μM, [125I]-iodo-cyanopindolol, Experiment 1
[2] = Table 39, compound concentration 30 μM, [125I]-iodo-cyanopindolol, Experiment 1
[3] = Table 42, concentration tested 30 μM, Experiment 4
[4] = Table 43, concentration tested 30 μM, Experiment 4

T1 sequence (A0A8I6A822 27-587): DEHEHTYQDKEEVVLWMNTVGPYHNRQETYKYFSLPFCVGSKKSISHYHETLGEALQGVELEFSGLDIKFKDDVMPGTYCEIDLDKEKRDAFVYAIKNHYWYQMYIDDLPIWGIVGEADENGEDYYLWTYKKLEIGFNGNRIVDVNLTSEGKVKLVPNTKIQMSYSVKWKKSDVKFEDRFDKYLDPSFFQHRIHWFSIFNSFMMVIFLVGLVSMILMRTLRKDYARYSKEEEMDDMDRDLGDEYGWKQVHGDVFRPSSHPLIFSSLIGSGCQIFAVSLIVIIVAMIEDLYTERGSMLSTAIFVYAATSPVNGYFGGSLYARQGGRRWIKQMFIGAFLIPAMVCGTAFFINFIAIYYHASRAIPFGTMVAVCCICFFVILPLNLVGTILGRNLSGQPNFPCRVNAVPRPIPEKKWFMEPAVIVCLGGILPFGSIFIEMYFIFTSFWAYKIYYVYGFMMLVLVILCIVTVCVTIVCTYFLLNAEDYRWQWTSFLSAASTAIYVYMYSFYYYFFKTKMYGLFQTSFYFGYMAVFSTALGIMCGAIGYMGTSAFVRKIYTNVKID

SMILES	inhibition at 30 µM [3] [%]	inhibition at 30 µM [4] [%]	other results
COc1ccc(-c2csc(=Nc3ccccc3)n2CCCN)cc1 [Example 9, N-[3-(3-Aminopropyl)-4-(4-methoxyphenyl)-thiazol-2(3H) -ylidene]aniline]	–	–	inhibition at 30 µM [1]: 79%
NCCCn1c(-c2ccc(-c3ccccc3)cc2)csc1=Nc1ccccc1 [Example 11, N-[3-(3-Aminopropyl)-4-(1,1′-biphenyl-4-yl)thiazol-2(3H)-ylidene]aniline]	–	–	inhibition at 30 µM [1]: 98.1%
CNCCCn1c(-c2ccc(OC)cc2)csc1=Nc1ccccc1 [Example 152, N-{4-(4-Methoxyphenyl)-3-[3-(methylamino)propyl]thiazol-2(3H)-ylidene}aniline]	–	–	inhibition at 30 µM [2]: 76.5%
CC(=O)NCCCn1c(-c2ccc(Br)cc2)csc1=Nc1ccccc1 [Example 153, N-{3-[4-(4-Bromophenyl)-2-phenyliminothiazol-3(2H)-yl]propyl}-acetamide]	–	–	inhibition at 30 µM [2]: 89.7%
O=C(CO)NCCCn1c(-c2ccc(Br)cc2)csc1=Nc1ccccc1 [Example 169, N-{3-[4-(4-Bromophenyl)-2-(phenylimino)-thiazol-3(2H)-yl]propyl}-2-hydroxyacetamide]	–	–	inhibition at 30 µM [2]: 58.6%
COC(=O)NCCCn1c(-c2ccc(OC)cc2)csc1=Nc1ccccc1 [Example 176, Methyl 3-[4-(4-methoxyphenyl)-2-(phenylimino)thiazol-3(2H)-yl]propyl-carbamate]	–	–	inhibition at 30 µM [2]: 75.2%
NCCCn1c(-c2ccc(C(=O)O)cc2)csc1=Nc1ccccc1 [Example 185, 4-[3-(3-Aminopropyl)-2-(phenylimino)-2,3-dihydrothiazol-4-yl]-benzoic acid]	–	–	inhibition at 30 µM [2]: 13.9%
CNC(=O)NCCn1c(-c2ccc(N3CCOCC3)cc2)csc1=Nc1ccc(F)cc1 [Example 214, N-Methyl-N′-{2-[2-[(4-fluorophenyl)imino]-4-[4-(morpholino)phenyl]-thiazol-3(2H)-yl]ethyl}urea]	99	–	–
CCOC(=O)CNCCCn1c(-c2ccc(F)cc2)csc1=Nc1ccc(Cl)cc1OC [Example 215, Ethyl N-{3-[2-[(4-chloro-2-methoxyphenyl)imino]-4-(4-fluorophenyl)-thiazol-3(2H)-yl]propyl}glycinate]	109	–	–
CCOC(=O)CCNCCCn1c(-c2ccc(F)cc2)csc1=Nc1ccc(Cl)cc1OC [Example 216, Ethyl N-{3-[2-[(4-chloro-2-methoxyphenylimino)]-4-(4-fluoro-phenyl)-thiazol-3 (2H)-yl]propyl}-β-alaninate]	112	–	–
CN(C)C(=O)NCCCn1c(-c2ccc(N3CCOCC3)cc2)csc1=Nc1ccc(F)cc1 [Example 220, N′-{3-[2-[(4-Fluorophenyl)imino]-4-[4-(morpholino)phenyl]thiazol-3(2H)-yl]propyl}-N,N-dimethylurea]	101	–	–
CCCCNC(=O)NCCCn1c(-c2ccc(N3CCOCC3)cc2)csc1=Nc1ccc(F)cc1 [Example 221, N-butyl-N′-{3-[2-[(4-fluorophenyl)imino]-4-[4-(morpholino)phenyl]-thiazol-3(2H)-yl]propyl}urea]	79	–	–
O=C(NCCCn1c(-c2ccc(N3CCOCC3)cc2)csc1=Nc1ccc(F)cc1)c1ccccc1 [Example 222, N-{3-[2-[(4-Fluorophenyl)imino]-4-[4-(morpholino)phenyl]thiazol-3(2H)-yl]propyl}benzamide]	86	–	–
CCOC(=O)CC(=O)NCCCn1c(-c2ccc(N3CCOCC3)cc2)cs/c1=N\c1ccc(F)cc1 [Example 239]	50	–	–
CN(C)CC(=O)NCCCn1c(-c2ccc(N3CCOCC3)cc2)cs/c1=N\c1ccc(F)cc1 [Example 245]	96	–	–
O=C(COc1ccccc1)NCCCn1c(-c2ccc(N3CCOCC3)cc2)cs/c1=N\c1ccc(F)cc1 [Example 246]	80	–	–
CCOC(=O)NCCCn1c(-c2ccc(N3CCOCC3)cc2)cs/c1=N\c1ccc(F)cc1 [Example 250]	98	–	–
CCS(=O)(=O)NCCCn1c(-c2ccc(N3CCOCC3)cc2)cs/c1=N\c1ccc(F)cc1 [Example 251]	61	–	–
N=C(NCCCn1c(-c2ccc(N3CCOCC3)cc2)cs/c1=N\c1ccc(F)cc1)N1CCCCC1 [Example 257]	110	–	–
CCNC(=O)NCCn1c(-c2ccc(N3CCOCC3)cc2)cs/c1=N\c1ccc(F)cc1 [Example 280]	99	–	–
CCCCCCNC(=O)NCCCn1c(-c2ccc(N3CCOCC3)cc2)cs/c1=N\c1ccc(F)cc1 [Example 284]	77	–	–

SMILES	inhibition at 30 µM [3] [%]	inhibition at 30 µM [4] [%]	other results
O=C(NCCCn1c(-c2ccc(N3CCOCC3)cc2)cs/c1=N\c1ccc(F)cc1)NC1CCCCC1 [Example 285]	35	–	–
O=C(NCCCn1c(-c2ccc(N3CCOCC3)cc2)cs/c1=N\c1ccc(F)cc1)Nc1ccc(F)cc1 [Example 288]	34	–	–
O=C(NCCCn1c(-c2ccc(N3CCOCC3)cc2)cs/c1=N\c1ccc(F)cc1)NCc1ccccc1 [Example 290]	98	–	–
COc1ccc(NC(=O)NCCCn2c(-c3ccc(N4CCOCC4)cc3)cs/c2=N\c2ccc(F)cc2)cc1 [Example 291]	68	–	–
CCNC(=O)NCCCCCn1c(-c2ccc(N3CCOCC3)cc2)cs/c1=N\c1ccc(F)cc1 [Example 295]	18	–	–
CCNC(=O)NCCCn1c(-c2ccc(N3CCOCC3)cc2)cs/c1=N\c1ncccn1 [Example 297]	75	–	–
CCNC(=O)NCCCn1c(-c2ccc(N3CCOCC3)cc2)cs/c1=N\c1ccc(OC)cn1 [Example 298]	101	–	–
CCNC(=O)NCCCn1c(-c2ccc(N3CCOCC3)cc2)cs/c1=N\c1nccs1 [Example 299]	–	93	–
CCNC(=O)NCCCn1c(CN(C)Cc2ccc(Cl)cc2)cs/c1=N\c1ccc(OC(F)(F)F)cc1 [Example 303]	–	23	–
CCNC(=O)NCCCn1c(COCc2ccccc2)cs/c1=N\c1ccc(OC(F)(F)F)cc1 [Example 305]	–	13	–
CCNC(=O)NCCCn1c(COCc2ccccc2)cs/c1=N\c1ccc(OC)cn1 [Example 307]	–	48	–
CN(C)C(=O)NCCCn1c(-c2ccc3c(c2)OCO3)cs/c1=N\c1ccc(OC(F)(F)F)cc1 [Example 309]	–	100	–
CCNC(=S)NCCCn1c(-c2ccc(N3CCOCC3)cc2)cs/c1=N\c1ccc(F)cc1 [Example 312]	–	112	–
COCCNCCCn1c(-c2ccc(F)cc2)cs/c1=N\c1ccc(Cl)cc1OC [Example 315]	–	115	–
COCCOCCNCCCn1c(-c2ccc(F)cc2)cs/c1=N\c1ccc(Cl)cc1OC [Example 316]	–	102	–
O=C(O)CNCCCn1c(-c2ccc(N3CCOCC3)cc2)csc1=Nc1ccc(F)cc1 [Example 329, N-{3-[2-[(4-Fluorophenyl)imino]-4-[4-(morpholino)phenyl]thiazol-3(2H)-yl]propyl}glycine]	–	76	–
CCNC(=O)CNCCCn1c(-c2ccc(N3CCOCC3)cc2)csc1=Nc1ccc(F)cc1 [Example 335, N^1-ethyl-N^2-{3-[2-[(4-fluorophenyl)imino]-4-[4-(morpholino)phenyl]-thiazol-3(2H)-yl]propyl}glycinamide]	–	101	–
CN(C)C(=O)CNCCCn1c(-c2ccc(N3CCOCC3)cc2)cs/c1=N\c1ccc(F)cc1 [Example 342]	–	56	–
CCN(CC)C(=O)CNCCCn1c(-c2ccc(N3CCOCC3)cc2)cs/c1=N\c1ccc(F)cc1 [Example 343]	–	107	–
O=C(CNCCCn1c(-c2ccc(N3CCOCC3)cc2)cs/c1=N\c1ccc(F)cc1)NCCO [Example 344]	–	101	–
CN(C)CCNC(=O)NCCCn1c(-c2ccc(N3CCOCC3)cc2)csc1=Nc1ccc(F)cc1 [Example 349, N-[2-(Dimethylamino)ethyl]-N′-{3-[2-[(4-fluorophenyl)imino]-4-[4-(morpholino)phenyl]thiazol-3(2H)-yl]propyl}urea]	–	100	–

From patent US7396842B2, “Five-membered cyclic compounds” (Dianippon Sumitomo Pharma Co., Ltd., priority 2002, dated 2008)
